Measured values published in the NIST ThermoML archive (doi:10.1021/acs.jced.8b00403).

How the values were obtained:
[1] = refractive index (Na D-line) (dimensionless); conditions: 101.33 kPa, Liquid, Standard Abbe refractometry
[2] = 101.33 kPa, Liquid; for viscosity: Concentric cylinders viscometry; for mass density: Vibrating tube method
[3] = refractive index (Na D-line) (dimensionless); wn = mass fraction of the nth substance listed; conditions: 101.33 kPa, Liquid, Standard Abbe refractometry, w2 = 0
[4] = wn = mass fraction of the nth substance listed; conditions: 101.33 kPa, Liquid, w2 = 0; for viscosity: Concentric cylinders viscometry; for mass density: Vibrating tube method

CC(O)CO (stereo unspecified) [1,2-propanediol]
Conditions	mass density, [2] [kg/m3]	refractive index, [1]	viscosity, [2] [mPa·s]
253.15 K	1065.8	–	1772.4
258.15 K	1062.2	–	1038.3
263.15 K	1058.6	–	631.08
268.15 K	1054.9	–	396.99
273.15 K	1051.3	–	258
278.15 K	–	1.438	–
283.15 K	1042.9	1.4364	116.68
288.15 K	–	1.4348	–
293.15 K	1035.5	1.4332	59.75
298.15 K	–	1.4315	–
303.15 K	1028.1	1.4299	33.26
308.15 K	–	1.4281	–
313.15 K	1020.6	1.4264	19.92
318.15 K	–	1.4247	–
323.15 K	1013	–	12.68
333.15 K	1005.3	–	8.498
343.15 K	997.7	–	5.95
353.15 K	989.5	–	4.332

OCCCO [propan-1,3-diol]
Conditions	mass density, [2] [kg/m3]	refractive index, [1]	viscosity, [2] [mPa·s]
253.15 K	1078.2	–	574.39
258.15 K	1075.4	–	409.88
263.15 K	1072.3	–	289.5
268.15 K	1069	–	207.88
273.15 K	1065.9	–	152.75
278.15 K	–	1.4436	–
283.15 K	1059.8	1.4423	86.48
288.15 K	–	1.4409	–
293.15 K	1053.6	1.4395	52.01
298.15 K	–	1.4381	–
303.15 K	1047.4	1.4368	32.92
308.15 K	–	1.4354	–
313.15 K	1041.1	1.434	21.79
318.15 K	–	1.4325	–
323.15 K	1034.8	–	15
333.15 K	1028.4	–	10.72
343.15 K	1021.9	–	7.855
353.15 K	1015.3	–	5.916

O [water]
Conditions	mass density, [2] [kg/m3]	refractive index, [1]	viscosity, [2] [mPa·s]
273.15 K	1000.8	–	1.825
278.15 K	–	1.3341	–
283.15 K	1000.6	1.3338	1.345
288.15 K	–	1.3335	–
293.15 K	999.3	1.3331	1.041
298.15 K	–	1.3326	–
303.15 K	996.8	1.332	0.8467
308.15 K	–	1.3313	–
313.15 K	993.2	1.3306	0.6997
318.15 K	–	1.3298	–
323.15 K	989	–	0.5967
333.15 K	984.4	–	0.5091
343.15 K	978.6	–	0.4355
353.15 K	972.7	–	0.3911

O [water] + CC(O)CO
Conditions	mass density, [4] [kg/m3]	refractive index, [3]	viscosity, [4] [mPa·s]
273.15 K	1000.8	–	1.825
278.15 K	–	1.3341	–
283.15 K	1000.6	1.3338	1.345
288.15 K	–	1.3335	–
293.15 K	999.3	1.3331	1.041
298.15 K	–	1.3326	–
303.15 K	996.8	1.332	0.8467
308.15 K	–	1.3313	–
313.15 K	993.2	1.3306	0.6997
318.15 K	–	1.3298	–
323.15 K	989	–	0.5967
333.15 K	984.4	–	0.5091
343.15 K	978.6	–	0.4355
353.15 K	972.7	–	0.3911

O [water] + OCCCO
Conditions	mass density, [4] [kg/m3]	refractive index, [3]	viscosity, [4] [mPa·s]
273.15 K	1000.8	–	1.825
278.15 K	–	1.3341	–
283.15 K	1000.6	1.3338	1.345
288.15 K	–	1.3335	–
293.15 K	999.3	1.3331	1.041
298.15 K	–	1.3326	–
303.15 K	996.8	1.332	0.8467
308.15 K	–	1.3313	–
313.15 K	993.2	1.3306	0.6997
318.15 K	–	1.3298	–
323.15 K	989	–	0.5967
333.15 K	984.4	–	0.5091
343.15 K	978.6	–	0.4355
353.15 K	972.7	–	0.3911
